Each structure is given as a SMILES string.

In turn, `CCCCCc1cccc2c1C(=O)N(OC1C(O)C(CO)OC1n1cnc3c(N)ncnc31)C2=O` (stereo not drawn) yielded a melting point of 159 to 160 °C.

As for `CNC(=O)Oc1ccc(NC(=O)C(Cl)(Cl)Cl)c(C)c1`, the melting point is 185 to 187 °C.

In turn, `CCCN1CCC(Cc2ccc3c(c2)c(Cc2ccc(C(=O)O)cc2OC)cn3CCC)C1=O` (stereo not drawn) came in with a melting point of 75 to 86 °C.

In turn, `CN1CCc2cc(C=O)sc2C(c2ccccc2)C1` (stereo not drawn) returned a melting point of 88 °C.

With `Oc1ccccc1OCC(F)(F)F`, the melting point lay in the range of 49 to 50 °C.

For the compound `CC(C)(c1ccccc1)c1cccc(S(=O)(=O)Cl)c1`, the melting point was 47.5 to 49 °C.

For the compound `CC(=O)N1CCC(C(=O)N(CCCN2CC3CN(C(=O)c4cccnc4N4CCC4)CC3C2)c2ccc(C)c(Cl)c2)CC1` (stereo not drawn), the melting point is 72.9 to 74 °C.

In turn, `O=C(O)CCc1cnc2ccccc2c1` came in with a melting point of 180 to 181 °C.

For the compound `N#CC=C(c1ccc(-c2ccccc2)cc1)c1ccc(-c2ccccc2)cc1`, the melting point came to 154 °C.

Turning to `CCCCCCCCCC(=O)c1ccc(O)c(C(=O)Nc2ccc([N+](=O)[O-])cc2)c1`, the melting point was 142 to 143 °C.

Turning to `O=C(O)Cc1ccc2[nH]c(=O)[nH]c2c1`, the melting point was determined as 161 °C.

Consider `CCOc1ccc(C(=O)Nc2ccc3ccc(OC)nc3n2)cc1`, for which the melting point was determined as 145 °C.

`CN(C)Cc1nc(CSCCNc2ncc(CC3CCCO3)c(=O)[nH]2)cs1` (stereo not drawn) displayed a melting point of 118 to 123 °C.

For `Cn1c(CC(=O)O)cc2c1C(=O)c1sccc1CC2`, the melting point lay in the range of 157 to 158 °C.

The compound `COc1ccc(C=CC(=O)c2c(OC)cc(OC)cc2OC(=O)c2cccnc2)cc1` displayed a melting point of 55 to 60 °C.

`CC(C)CNC(=O)c1ccc(C(=O)O)cc1[N+](=O)[O-]` displayed a melting point of 255 to 257 °C.

`COc1ccc(C(=O)N2CCCC2=O)cc1OCc1ccccc1` had a melting point of 92 °C.

Take `CN(C)C=Nc1nc(=O)n(S(=O)(=O)c2ccc(Cl)cc2)cc1F`: the melting point was in the range of 207 to 210 °C.

On to `O=CN1CCSc2ccccc2C1`, for which the melting point fell in the range of 84 to 87 °C.

In turn, `ClC(Cl)=CCOc1cc(Cl)c(OCC=Cc2ccccc2)c(Cl)c1` yielded a melting point of 51.3 °C.

For the compound `CC(C)(C)OC(=O)NC(CC(=O)O)c1ccc(Cl)c(Cl)c1` (stereo not drawn), the melting point came out at 128 °C.

For `COC=C(C(=O)OC)c1ccccc1CC(=O)c1ccccc1`, the melting point was in the range of 97 to 99 °C.

Consider `CN(C)CC=CC(=O)Nc1ccc2ncnc(Nc3cccc(Br)c3)c2c1`, for which the melting point lay in the range of 215 to 217 °C.

For `CNC(=O)c1nc(SC)n2c1CN=C(c1ccccc1Cl)c1cc(Cl)ccc1-2`, the melting point lay in the range of 224 to 227 °C.

As for `NC(=O)c1cccc(OC2C(C(=O)O)=CC=CN2Cc2ccccc2Cl)c1` (stereo not drawn), the melting point is 220 to 224 °C.

Consider `O=C(c1ccccc1)c1ccc(Oc2ccc(S(=O)(=O)Cc3ccccc3)cn2)cc1`, for which the melting point is 146 to 147 °C.

The compound `COC(=O)c1ccc(I)c2c1Nc1ccccc1C2` returned a melting point of 119 to 121 °C.

`Cc1ccc(C)c(NC(=O)OC(C)(C)C)c1` showed a melting point of 103 to 104 °C.

Compound `CCCCN(C(=O)c1ccccc1)C(=NC(=O)c1ccccc1)Nc1ccc(C(N)=O)cc1` displayed a melting point of 90 to 92 °C.

The compound `COC(=O)c1ccc(NS(=O)(=O)c2sc3ccc(F)cc3c2C)c(S(C)(=O)=O)c1` registered a melting point of 202 to 204 °C.

In the case of `CC(=O)OC1CSC(Oc2cccnc2-c2ccc(F)cc2)C(OC(C)=O)C1OC(C)=O` (stereo not drawn), the melting point was 149 °C.

Compound `O=c1c(N2CCNCC2)nc2ccccc2n1-c1ccccc1Cl` gave a melting point of 135 to 137 °C.

In turn, `CSC1=NC(=O)C(=C(C)c2cc(C(C)(C)C)c(O)c(C(C)(C)C)c2)S1` came in with a melting point of 206 to 209 °C.

For `CCn1c(=O)c2c(nc(C=Cc3cccc(C(=O)O)c3)n2C)n(CC)c1=O`, the melting point is 260 to 262 °C.

`CCCCCC(COc1ccc(C(=O)O)cc1)c1ccc2c(c1)C(C)(C)CC(C)(C)O2` (racemic): the melting point was 94 to 96 °C.

Regarding `Cc1cc(-n2cc(C#N)nc2C)cc2ccc(=O)[nH]c12`, the melting point is > 350 °C.

In turn, `CC(C)(C)OC(=O)N1CCC2(CC1)SCc1ccccc12` yielded a melting point of 131 to 132 °C.

`CCOC(=O)c1cccc(NC(=O)c2sc(NC(=N)N)nc2C)c1` displayed a melting point of 149 to 152 °C.

Turning to `COC(=O)c1cc(-c2ccc(OCc3ccccc3)cc2)n(-c2ccc(S(N)(=O)=O)cc2)n1`, the melting point was 196 to 198 °C.

For `Nc1nc(Br)cn2c(Br)cnc12`, the melting point is 246 °C.

`O=C1NCN(c2ccccc2)C12CCCCC2` had a melting point of 193 to 195 °C.

Take `CCOC(=O)c1nn(-c2c(Cl)cc(C(F)(F)F)cc2Cl)cc1O`: the melting point lay in the range of 140 to 143 °C.

Turning to `CCCCCCCCCCCCCCCCSC1OC(C)C(OC(C)=O)C(OC(C)=O)C1OC(C)=O` (stereo not drawn), the melting point was 49 to 50 °C.

Turning to `CC(C)(C)OC1CC(n2cnc3c(Cl)ncnc32)C2CC12COCc1ccccc1` (stereo not drawn), the melting point was 112 to 113 °C.

As for `COc1ccccc1Cc1ccc2nc(N)nc(N)c2c1`, the melting point is 214 to 215 °C.

`CCOC(=O)CC(NC(=O)CNC(=O)c1csc(NC(=N)N)n1)c1cccnc1` (racemic) gave a melting point of 114 °C.

In the case of `COc1ccc(N2C(=O)N(c3cccc(C(N)=O)c3)c3nc(Nc4ccccc4)ncc3C2C)c(F)c1` (stereo not drawn), the melting point is 282 to 286 °C.

As for `COc1ccccc1Nc1c(C(=O)c2ccccc2)cnc2c(OC)cccc12`, the melting point is 200 to 202 °C.

`CCN1C(C(=O)OC)=C(O)c2ccc3ccccc3c2S1(=O)=O` returned a melting point of 179 °C.

In turn, `Cc1cc(-c2cc(C(F)(F)F)n3ncc(C(=O)Nc4cccc(S(=O)(=O)NC5CC5)c4)c3n2)ccc1C(F)(F)F` returned a melting point of 201 °C.

As for `Cc1oc(-c2ccccc2)nc1COc1nn(Cc2ccc(Oc3ccccc3)cc2)cc1C(=O)O`, the melting point was in the range of 222 to 223 °C.

Compound `N#Cc1ccc2c(c1)C(O)CCCO2` (stereo not drawn) yielded a melting point of 85 to 86.5 °C.

The compound `O=c1cc(-c2ccccc2)c2c([nH]1)CCCC2` returned a melting point of 285 to 288 °C.

With `COc1cc(-c2nc(N)sc2CCC2CCCCC2)c(OC)cc1C`, the melting point amounted to 112 °C.

Compound `Cc1cc(C#N)cc(C(=O)NCC2CC2)c1NC(=O)c1cc(C(F)(F)F)nn1-c1ncccc1Cl` showed a melting point of 235 to 236 °C.

`CCOC(=O)C1=CC(OC)(C(C)(C)C)N(c2ccc(Cl)cc2Cl)N1` (stereo not drawn) displayed a melting point of 130 to 133 °C.

On to `CN1Cc2cc(C(c3ccccc3)n3ccnc3)ccc2NC1=O` (stereo not drawn), for which the melting point was determined as 174 °C.

`O=C(Cc1ccc(O)cc1)NC1CCN(Cc2ccc(Cl)c(Cl)c2)CC1` yielded a melting point of 72 to 97 °C.

Turning to `CC1=C2C(Br)CC3C4CCCC4(C)CCC3C2(C)CCC1=O` (stereo not drawn), the melting point is 124 to 125 °C.

As to `CCCCCCCCCC(O)CNCCCCCCNCC(O)CCCCCCCCC` (stereo not drawn), the melting point was 123 to 129 °C.

`CC(C)C[C@H](CC(=O)NC1CCCCC1)C(=O)OCc1ccccc1` gave a melting point of 99 to 102 °C.

`CCOP(=O)(Cc1ccc(C(N)=O)cc1)OCC`: the melting point fell in the range of 177 to 178 °C.

Turning to `Cc1ccc(CN2CCOCC2)cn1`, the melting point lay in the range of 51 to 52 °C.

Compound `CC(=O)NCCC1CCc2ccn3nc(C)c(C)c3c21` (stereo not drawn) came in with a melting point of 134 to 135 °C.

With `CC(C)n1nc(-c2cc(C(N)=O)c(=O)[nH]c2-c2ccccc2)ccc1=O`, the melting point is > 250 °C.

For the compound `c1cnc(N2CCN(CCCCn3cccn3)CC2)nc1`, the melting point came to 124 °C.

On to `Cc1ccc(S(=O)(=O)OC[C@H]2CC[C@@H](COS(=O)(=O)c3ccc(C)cc3)O2)cc1`, for which the melting point lay within 125 to 126 °C.

On to `O=C(O)c1nc2c(=O)[nH]c3cc(C(F)(F)F)ccc3n2c1Cn1cnc(Cl)c1Cl`, for which the melting point fell in the range of 213 to 215 °C.

As for `CC(=O)Oc1ccc(C(=O)c2ccc(OC(C)=O)cc2)cc1`, the melting point lay within 120 to 122 °C.

For `COc1cccc2c(C(F)(F)F)cc(C)nc12`, the melting point lay within 112 to 113 °C.

Regarding `O=C1c2ccccc2C(=O)c2c1oc1ccc3cc(O)ccc3c21`, the melting point amounted to 318 °C.

`N#Cc1cccc(-c2nc(Nc3cnccn3)sc2-c2ccncn2)c1`: the melting point is > 280 °C.

As to `CCOC(=O)CNC(=O)n1nc(Oc2cccc(C(F)(F)F)c2)cc1C`, the melting point is 66 to 68 °C.

With `CCOC(=O)c1ccc(N(CCO)C(=O)Nc2ccc(C3CCN(C(=O)C(F)(F)F)CC3)cc2)cc1`, the melting point fell in the range of 105 to 108 °C.

`Cn1c(C(F)(F)F)ccc(-c2cc(S(C)=O)c(Cl)cc2F)c1=O` (stereo not drawn) displayed a melting point of 147 to 148 °C.

For the compound `CS(=O)(=O)c1ccc(Br)cc1C(F)(F)F`, the melting point lay in the range of 110 to 112 °C.

Compound `CC(C)N1CCN(C(=O)c2cc(N)cc(C(F)(F)F)c2)CC1` had a melting point of 89 to 90 °C.

Take `COc1cc(OC)nc(C2OC(=O)c3ncccc32)n1` (stereo not drawn): the melting point was 167 to 168 °C.

Take `O=C(NO)c1ccc(OCCNS(=O)(=O)c2ccc(C(=O)Nc3ccc(Cl)c(-c4ccccn4)c3)c(Cl)c2)cc1`: the melting point was in the range of 138 to 139 °C.

The compound `COc1cc(OC)c2cc(-c3ccc([N+](=O)[O-])cc3)oc2c1` had a melting point of 192 to 193 °C.

The compound `COc1cc(Nc2cc(C(=O)NN)ccn2)cc(C(F)(F)F)c1` registered a melting point of 229 to 230 °C.

For `Cn1ccnc1SCc1nc(-c2ccc3c(c2)OCO3)c2cc3c(cc2n1)OCO3`, the melting point lay within 155 to 160 °C.

With `Oc1ccc2nc(-c3ccc(O)c(C45CC6CC(CC(C6)C4)C5)c3)[nH]c2c1`, the melting point lay in the range of 241 to 243 °C.

On to `N#Cc1ccc(-c2ccc(C(=O)O)nc2)cc1`, for which the melting point is > 260 °C.

`Oc1cccc([C@H]2CCCC[C@H]2N2CCCC2)c1` (relative stereo) had a melting point of 124 to 126 °C.

Take `COc1ccc(Cn2cnc3c(-c4ccco4)nc(N(C(C)=O)C(C)=O)nc32)cc1`: the melting point lay in the range of 167 to 168 °C.

On to `COc1ccc(CCN(CCC2CCCCC2)C(=O)CCCCC(N)=O)cc1OC`, for which the melting point was in the range of 158 to 160 °C.

Compound `CC(C)(C)c1cc(C(=O)OCc2ccccc2)cc(C(C)(C)C)c1O` came in with a melting point of 80 to 83 °C.

The values are drawn from a melting point compilation (Tetko et al.; mined from patent text by program, amines drawn as free bases though some values may be those of a salt).
